From ChEMBL document CHEMBL1201862, “PubChem BioAssay data set” (2004)
Active and inactive are the calls of the source.

Assays:
[1] = target: Heat shock protein HSP 90-alpha (Homo sapiens, UniProt P07900); format: functional, organism-based
[2] = target: T1, Polyadenylate-binding protein 1 (Homo sapiens, UniProt P11940); assay: MLLE binding blockers, Cy5 peptide tracer – biochemical, fluorescence polarization, Cy5-PAM2 peptide, secondary, miRNA deadenylation inhibitor project, dose response (AID 602260); format: functional; conditions: read-out: IC50_Mean
[3] = target: T1, Polyadenylate-binding protein 1; assay: MLLE domain peptide-binding blockers, IC50 – biochemical, fluorescence polarization, FITC-PAM2 peptide, dose response (AID 602259); format: functional; conditions: read-out: IC50_Mean
Genome polyprotein = Genome polyprotein (dengue virus type 2, UniProt P29990); assay: flavivirus cap methylation enzyme inhibition – biochemical, confirmation dose response, primary screen (AID 588689); format: functional
Large T antigen = Large T antigen (Simian virus 40, UniProt P03070); format: functional, Betapolyomavirus macacae;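 also: Confirmatory-stage PubChem screen for compounds that inhibit SV40 T antigen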
[4] = target: T2, RNA-binding protein pos-1 (Caenorhabditis elegans, UniProt G5EF15); assay: disruptors of C. elegans POS-1 RNA interaction – biochemical, fluorescence polarization, dose response (AID 1964);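 also: purified POS-1 fused to maltose binding protein made in E. coli; potency of compounds blocking POS-1 binding to fluorescent RNA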
T2 sequence (G5EF15 whole entry): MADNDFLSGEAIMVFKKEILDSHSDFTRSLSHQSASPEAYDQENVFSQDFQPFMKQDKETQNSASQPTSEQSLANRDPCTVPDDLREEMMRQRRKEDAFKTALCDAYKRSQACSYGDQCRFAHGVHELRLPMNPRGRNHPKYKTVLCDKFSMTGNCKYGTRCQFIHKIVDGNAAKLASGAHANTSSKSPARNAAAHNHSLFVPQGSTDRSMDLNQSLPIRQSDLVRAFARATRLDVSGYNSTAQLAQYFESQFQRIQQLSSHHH

[5] = target: T3, Zinc finger protein mex-5 (Caenorhabditis elegans, UniProt Q9XUB2); assay: potency of MEX-5 RNA-binding blockers – biochemical, C. elegans, fluorescence polarization, dose response (AID 1960)
T3 sequence (Q9XUB2 whole entry): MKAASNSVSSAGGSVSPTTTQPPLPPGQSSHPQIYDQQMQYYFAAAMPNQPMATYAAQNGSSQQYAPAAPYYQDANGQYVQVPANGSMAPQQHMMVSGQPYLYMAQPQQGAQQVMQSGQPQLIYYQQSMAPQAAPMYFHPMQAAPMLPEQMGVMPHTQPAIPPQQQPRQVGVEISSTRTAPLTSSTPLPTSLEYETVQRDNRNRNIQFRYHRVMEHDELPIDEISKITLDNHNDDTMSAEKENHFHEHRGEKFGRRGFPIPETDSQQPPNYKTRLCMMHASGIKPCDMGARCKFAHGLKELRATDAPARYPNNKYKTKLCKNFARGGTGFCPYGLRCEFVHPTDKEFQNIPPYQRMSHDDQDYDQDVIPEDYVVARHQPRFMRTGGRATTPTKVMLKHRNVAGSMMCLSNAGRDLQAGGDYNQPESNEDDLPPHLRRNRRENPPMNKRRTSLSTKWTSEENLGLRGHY

[6] = target: Alkaline phosphatase, placental type (Homo sapiens, UniProt P05187); assay: human placental alkaline phosphatase inhibition – biochemical, luminescence, confirmation (AID 1512); format: functional
Fatty acid synthase [7] = target: T4, Fatty acid synthase (Homo sapiens, UniProt P49327); assay: inhibition of human FAS-TE enzyme activity – biochemical, endpoint fluorescence intensity, uHTS hits, dose response (AID 624327); format: functional;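 also: fluorescence from hydrolysis of an O-methyl fluorescein acyl ester substrate by the enzyme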
Fatty acid synthase [8] = target: T4, Fatty acid synthase; assay: inhibition of human FAS-TE enzyme activity – biochemical, kinetic fluorescence intensity, dose response (AID 624326); format: functional;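 also: rate of fluorescence rise from hydrolysis of a fluorogenic O-methyl fluorescein ester substrate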
[9] = target: Luciferin 4-monooxygenase (Photinus pyralis, UniProt P08659); assay: inhibition of purified Photinus pyralis luciferase – biochemical, luminescence, dose response (AID 1891)
[10] = Luminescence Cell-Based Dose Confirmation HTS to Identify Inhibitors of Platelet Dense Granule Release. [Related pubchem assays: 1663 (Primary HTS), 1678 (Summary of Project)]; format: functional
[11] = target: T5, Replicative DNA helicase DnaB (Mycobacterium tuberculosis, UniProt P9WMR3); assay: DnaB intein splicing inhibitors, dose response, biochemical, cell-free fluorescence (AID 449749); format: functional
T5 sequence (P9WMR3 whole entry): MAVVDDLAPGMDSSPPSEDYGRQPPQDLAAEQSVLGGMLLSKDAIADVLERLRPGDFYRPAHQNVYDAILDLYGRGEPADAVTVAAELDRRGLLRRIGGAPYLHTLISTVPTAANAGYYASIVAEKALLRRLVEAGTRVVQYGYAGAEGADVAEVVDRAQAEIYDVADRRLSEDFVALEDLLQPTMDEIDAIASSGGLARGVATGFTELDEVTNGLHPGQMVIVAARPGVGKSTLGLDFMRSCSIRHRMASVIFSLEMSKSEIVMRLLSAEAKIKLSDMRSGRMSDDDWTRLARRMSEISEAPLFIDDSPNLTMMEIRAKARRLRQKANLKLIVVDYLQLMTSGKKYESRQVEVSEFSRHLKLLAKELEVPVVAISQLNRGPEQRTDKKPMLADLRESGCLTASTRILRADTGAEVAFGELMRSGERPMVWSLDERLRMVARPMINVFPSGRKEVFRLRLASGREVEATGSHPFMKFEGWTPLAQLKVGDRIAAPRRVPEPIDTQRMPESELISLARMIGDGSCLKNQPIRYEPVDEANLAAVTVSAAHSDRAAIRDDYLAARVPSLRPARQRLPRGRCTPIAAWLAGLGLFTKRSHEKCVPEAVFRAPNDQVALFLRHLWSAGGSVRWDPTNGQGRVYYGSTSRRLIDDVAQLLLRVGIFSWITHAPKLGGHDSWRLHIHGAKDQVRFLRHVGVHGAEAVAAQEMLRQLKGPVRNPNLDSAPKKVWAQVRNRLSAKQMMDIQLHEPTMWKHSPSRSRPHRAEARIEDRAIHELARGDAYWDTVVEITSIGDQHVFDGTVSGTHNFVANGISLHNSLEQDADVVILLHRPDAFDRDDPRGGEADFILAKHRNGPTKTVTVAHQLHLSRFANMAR

Protein RecA = target: T6, Protein RecA (Mycobacterium tuberculosis, UniProt P9WHJ3); assay: Fluorescence Cell-Free Homogeneous Dose Retest to Identify Inhibitors of RecA-Intein Splicing Activity. [Related pubchem assays (depositor defined):AID2097, AID2223, AID489010, AID492950]; format: functional
T6 sequence (P9WHJ3 whole entry): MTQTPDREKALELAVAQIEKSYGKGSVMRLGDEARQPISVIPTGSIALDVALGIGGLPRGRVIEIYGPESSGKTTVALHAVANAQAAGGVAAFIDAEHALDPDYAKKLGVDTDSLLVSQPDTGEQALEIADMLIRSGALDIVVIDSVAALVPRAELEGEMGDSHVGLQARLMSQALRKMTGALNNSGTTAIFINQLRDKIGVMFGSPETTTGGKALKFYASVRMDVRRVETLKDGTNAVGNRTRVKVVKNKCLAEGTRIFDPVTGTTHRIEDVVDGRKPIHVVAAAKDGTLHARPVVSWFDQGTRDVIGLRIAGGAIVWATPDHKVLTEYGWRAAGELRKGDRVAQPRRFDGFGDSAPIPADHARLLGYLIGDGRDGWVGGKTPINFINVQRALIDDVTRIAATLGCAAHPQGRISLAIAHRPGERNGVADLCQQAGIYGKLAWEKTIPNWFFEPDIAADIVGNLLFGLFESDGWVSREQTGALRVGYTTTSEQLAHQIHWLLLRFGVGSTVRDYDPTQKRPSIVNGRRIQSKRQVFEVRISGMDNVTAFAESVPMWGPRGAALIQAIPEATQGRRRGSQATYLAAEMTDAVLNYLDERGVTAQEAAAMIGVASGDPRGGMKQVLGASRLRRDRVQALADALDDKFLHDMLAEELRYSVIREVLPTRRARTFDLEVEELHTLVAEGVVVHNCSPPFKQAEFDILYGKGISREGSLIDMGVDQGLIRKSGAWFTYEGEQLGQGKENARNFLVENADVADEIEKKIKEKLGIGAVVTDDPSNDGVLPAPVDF

[12] = target: T7, High affinity choline transporter 1 (Homo sapiens, UniProt Q9GZV3); assay: human choline transporter blockers, potency – cell-based, 5-point CRC, membrane potential dye, dose response (AID 504840); format: functional
T7 sequence (Q9GZV3 whole entry): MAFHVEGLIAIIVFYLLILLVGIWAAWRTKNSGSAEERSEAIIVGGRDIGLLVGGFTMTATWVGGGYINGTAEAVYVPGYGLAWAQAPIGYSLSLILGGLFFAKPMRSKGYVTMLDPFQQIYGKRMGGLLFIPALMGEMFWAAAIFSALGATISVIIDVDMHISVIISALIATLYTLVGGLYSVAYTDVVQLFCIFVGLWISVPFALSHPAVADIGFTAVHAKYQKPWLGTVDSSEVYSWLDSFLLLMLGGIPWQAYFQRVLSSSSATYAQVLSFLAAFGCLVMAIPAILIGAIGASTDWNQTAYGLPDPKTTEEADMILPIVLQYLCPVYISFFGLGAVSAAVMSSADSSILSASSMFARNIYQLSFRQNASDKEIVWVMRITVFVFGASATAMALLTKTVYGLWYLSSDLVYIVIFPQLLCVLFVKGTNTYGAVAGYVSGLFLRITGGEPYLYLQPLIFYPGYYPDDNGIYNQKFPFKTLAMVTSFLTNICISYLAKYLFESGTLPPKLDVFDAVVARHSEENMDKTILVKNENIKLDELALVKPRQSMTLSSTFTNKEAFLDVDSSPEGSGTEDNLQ

[13] = Luminescence Cell-Based Dose Retest to Confirm Inhibitors of Cancer Stem Cells. [Related pubchem assays (depositor defined):AID2717, AID2721]; format: functional; conditions: Homo sapiens
[14] = blockers of HIV-1 envelope-mediated cell-cell fusion – cherry-pick, dose response (AID 652057); format: functional, cell-based
[15] = blockers of HIV-1 ZM109 envelope-driven cell-cell fusion – HeLa effector, CEM target cells, luciferase, cherry-pick, dose response (AID 652058); format: functional, cell-based;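 also: luciferase signal from HIV-1 Env mediated cell-cell fusion of effector and target cells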
[16] = HIV-1 AD8 envelope cell-cell fusion blockers – cherry-pick, dose response (AID 652062); format: functional, cell-based;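 also: luciferase signal from cell-cell fusion driven by HIV-1 clade B AD8 Env; potency is for inhibitors of fusion seen as a drop in luminescence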

T4 sequence (P49327 whole entry): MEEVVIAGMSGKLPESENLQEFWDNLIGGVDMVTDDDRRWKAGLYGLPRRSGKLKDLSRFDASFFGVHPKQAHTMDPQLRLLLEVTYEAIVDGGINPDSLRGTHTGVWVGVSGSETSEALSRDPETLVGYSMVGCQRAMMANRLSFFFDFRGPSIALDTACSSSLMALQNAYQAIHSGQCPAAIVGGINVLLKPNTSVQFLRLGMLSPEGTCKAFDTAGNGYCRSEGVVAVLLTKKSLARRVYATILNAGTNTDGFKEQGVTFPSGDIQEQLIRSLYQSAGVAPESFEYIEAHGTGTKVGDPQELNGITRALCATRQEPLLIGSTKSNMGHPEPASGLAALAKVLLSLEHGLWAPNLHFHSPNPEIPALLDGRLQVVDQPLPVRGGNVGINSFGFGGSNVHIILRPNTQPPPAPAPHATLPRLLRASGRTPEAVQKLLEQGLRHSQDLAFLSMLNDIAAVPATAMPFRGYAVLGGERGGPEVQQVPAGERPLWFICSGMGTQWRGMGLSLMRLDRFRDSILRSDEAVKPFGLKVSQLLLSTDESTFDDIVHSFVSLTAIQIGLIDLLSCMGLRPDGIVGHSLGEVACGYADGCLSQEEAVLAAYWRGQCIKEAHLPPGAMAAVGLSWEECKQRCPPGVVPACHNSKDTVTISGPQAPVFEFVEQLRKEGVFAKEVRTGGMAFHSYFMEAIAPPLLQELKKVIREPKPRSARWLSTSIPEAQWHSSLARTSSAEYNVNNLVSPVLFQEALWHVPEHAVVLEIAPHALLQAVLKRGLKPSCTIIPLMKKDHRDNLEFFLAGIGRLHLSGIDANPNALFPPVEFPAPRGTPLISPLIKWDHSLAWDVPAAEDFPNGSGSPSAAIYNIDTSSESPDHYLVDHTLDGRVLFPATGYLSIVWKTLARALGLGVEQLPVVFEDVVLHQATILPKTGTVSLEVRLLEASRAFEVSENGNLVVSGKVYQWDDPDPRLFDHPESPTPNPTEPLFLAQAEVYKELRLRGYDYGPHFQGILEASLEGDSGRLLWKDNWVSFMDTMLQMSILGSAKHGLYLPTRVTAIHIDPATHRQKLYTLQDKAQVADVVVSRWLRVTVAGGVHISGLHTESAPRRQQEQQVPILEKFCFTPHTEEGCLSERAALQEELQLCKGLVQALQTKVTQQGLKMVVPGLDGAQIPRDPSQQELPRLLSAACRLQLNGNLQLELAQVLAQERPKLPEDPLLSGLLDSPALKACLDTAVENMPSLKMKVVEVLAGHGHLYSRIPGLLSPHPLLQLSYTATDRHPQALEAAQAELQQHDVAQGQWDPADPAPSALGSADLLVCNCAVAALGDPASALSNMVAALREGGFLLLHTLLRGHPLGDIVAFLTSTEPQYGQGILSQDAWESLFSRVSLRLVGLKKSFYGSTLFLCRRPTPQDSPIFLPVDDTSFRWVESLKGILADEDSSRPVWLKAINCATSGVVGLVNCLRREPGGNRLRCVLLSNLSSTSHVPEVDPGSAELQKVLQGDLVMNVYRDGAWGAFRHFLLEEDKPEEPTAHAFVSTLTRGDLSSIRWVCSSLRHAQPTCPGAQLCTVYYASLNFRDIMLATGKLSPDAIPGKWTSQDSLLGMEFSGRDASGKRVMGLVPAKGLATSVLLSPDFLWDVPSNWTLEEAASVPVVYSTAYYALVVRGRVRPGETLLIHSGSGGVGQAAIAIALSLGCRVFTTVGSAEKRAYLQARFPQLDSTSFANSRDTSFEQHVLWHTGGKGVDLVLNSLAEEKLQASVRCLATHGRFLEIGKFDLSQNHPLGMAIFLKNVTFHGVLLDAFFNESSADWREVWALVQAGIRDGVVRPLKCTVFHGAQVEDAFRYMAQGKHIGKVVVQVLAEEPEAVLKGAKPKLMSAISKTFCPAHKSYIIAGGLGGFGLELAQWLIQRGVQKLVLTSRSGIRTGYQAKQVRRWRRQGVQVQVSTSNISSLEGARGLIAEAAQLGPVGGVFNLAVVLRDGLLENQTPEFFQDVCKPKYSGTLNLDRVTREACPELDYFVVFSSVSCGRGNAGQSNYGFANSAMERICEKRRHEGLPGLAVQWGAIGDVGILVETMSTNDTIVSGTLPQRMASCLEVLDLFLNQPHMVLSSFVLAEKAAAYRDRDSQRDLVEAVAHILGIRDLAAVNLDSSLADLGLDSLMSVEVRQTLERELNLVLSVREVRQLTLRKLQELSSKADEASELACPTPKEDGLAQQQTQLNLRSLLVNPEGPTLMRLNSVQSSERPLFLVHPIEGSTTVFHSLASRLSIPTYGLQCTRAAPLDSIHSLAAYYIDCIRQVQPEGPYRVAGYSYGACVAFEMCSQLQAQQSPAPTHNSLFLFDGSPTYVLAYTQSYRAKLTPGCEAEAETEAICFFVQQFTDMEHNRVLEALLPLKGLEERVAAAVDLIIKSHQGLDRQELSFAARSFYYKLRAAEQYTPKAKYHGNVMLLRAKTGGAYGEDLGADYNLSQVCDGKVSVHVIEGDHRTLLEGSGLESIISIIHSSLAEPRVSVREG
T1 sequence (P11940 whole entry, the tested form may be a part): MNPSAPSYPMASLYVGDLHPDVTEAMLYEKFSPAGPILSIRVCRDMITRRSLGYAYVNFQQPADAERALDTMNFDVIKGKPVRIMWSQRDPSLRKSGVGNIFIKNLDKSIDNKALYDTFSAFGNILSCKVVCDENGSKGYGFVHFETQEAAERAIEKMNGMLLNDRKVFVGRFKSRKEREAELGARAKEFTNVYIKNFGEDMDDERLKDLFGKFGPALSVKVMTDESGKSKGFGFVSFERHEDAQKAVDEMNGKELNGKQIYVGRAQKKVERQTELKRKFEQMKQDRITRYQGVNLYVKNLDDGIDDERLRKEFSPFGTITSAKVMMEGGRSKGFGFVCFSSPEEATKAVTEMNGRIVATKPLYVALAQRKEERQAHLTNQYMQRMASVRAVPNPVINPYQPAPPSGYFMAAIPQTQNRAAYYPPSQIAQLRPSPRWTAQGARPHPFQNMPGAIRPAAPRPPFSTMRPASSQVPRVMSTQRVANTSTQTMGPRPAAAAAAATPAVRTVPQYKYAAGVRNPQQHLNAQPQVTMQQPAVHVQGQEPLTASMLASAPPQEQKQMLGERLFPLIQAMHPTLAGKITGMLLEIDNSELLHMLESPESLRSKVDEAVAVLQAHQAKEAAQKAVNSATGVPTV
Chain of Genome polyprotein (P29990 2492-3391 limits assumed): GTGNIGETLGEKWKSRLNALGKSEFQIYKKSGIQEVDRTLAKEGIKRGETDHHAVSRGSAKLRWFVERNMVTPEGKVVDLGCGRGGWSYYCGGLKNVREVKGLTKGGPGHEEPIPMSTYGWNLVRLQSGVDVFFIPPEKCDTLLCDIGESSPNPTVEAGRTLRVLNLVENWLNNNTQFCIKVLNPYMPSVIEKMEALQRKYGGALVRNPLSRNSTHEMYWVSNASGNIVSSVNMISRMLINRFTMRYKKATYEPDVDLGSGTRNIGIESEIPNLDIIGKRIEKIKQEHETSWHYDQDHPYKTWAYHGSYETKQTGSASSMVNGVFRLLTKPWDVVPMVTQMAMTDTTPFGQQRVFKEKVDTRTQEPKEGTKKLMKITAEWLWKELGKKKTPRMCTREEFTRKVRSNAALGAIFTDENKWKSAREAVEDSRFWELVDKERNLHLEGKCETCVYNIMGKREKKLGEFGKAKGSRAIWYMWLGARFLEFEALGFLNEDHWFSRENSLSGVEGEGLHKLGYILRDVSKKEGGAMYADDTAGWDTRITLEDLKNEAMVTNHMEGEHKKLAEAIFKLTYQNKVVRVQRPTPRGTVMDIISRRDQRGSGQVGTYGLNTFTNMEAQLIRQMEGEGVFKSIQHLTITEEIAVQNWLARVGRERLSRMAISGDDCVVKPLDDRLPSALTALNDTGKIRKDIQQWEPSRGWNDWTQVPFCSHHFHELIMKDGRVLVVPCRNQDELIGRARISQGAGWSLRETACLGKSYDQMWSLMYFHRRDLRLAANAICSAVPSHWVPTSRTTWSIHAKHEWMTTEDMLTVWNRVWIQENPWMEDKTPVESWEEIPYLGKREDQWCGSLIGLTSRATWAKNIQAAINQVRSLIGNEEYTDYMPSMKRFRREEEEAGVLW
Chain of Large T antigen (P03070 whole entry, the tested form may be a part): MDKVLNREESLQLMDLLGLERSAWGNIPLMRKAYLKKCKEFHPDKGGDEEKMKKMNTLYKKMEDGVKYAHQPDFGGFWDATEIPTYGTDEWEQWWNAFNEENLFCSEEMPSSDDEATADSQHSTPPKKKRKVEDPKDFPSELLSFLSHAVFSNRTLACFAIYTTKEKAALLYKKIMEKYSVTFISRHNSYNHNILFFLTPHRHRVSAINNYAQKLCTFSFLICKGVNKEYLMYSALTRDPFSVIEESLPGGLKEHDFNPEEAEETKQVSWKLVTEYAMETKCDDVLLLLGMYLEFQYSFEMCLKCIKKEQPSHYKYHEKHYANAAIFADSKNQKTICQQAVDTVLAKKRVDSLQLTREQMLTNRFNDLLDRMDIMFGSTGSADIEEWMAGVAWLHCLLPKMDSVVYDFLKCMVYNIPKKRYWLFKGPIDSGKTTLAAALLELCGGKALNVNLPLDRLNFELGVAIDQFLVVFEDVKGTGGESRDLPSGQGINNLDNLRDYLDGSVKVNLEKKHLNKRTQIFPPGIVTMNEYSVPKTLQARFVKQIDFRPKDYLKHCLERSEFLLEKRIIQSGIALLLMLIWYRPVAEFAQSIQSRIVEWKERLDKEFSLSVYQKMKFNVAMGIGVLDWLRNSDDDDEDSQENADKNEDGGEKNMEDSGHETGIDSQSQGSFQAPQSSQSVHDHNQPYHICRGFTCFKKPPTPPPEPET

O=C(/C=C/c1cccc([N+](=O)[O-])c1)c1ccco1
AC50 [1]: 4 µM (active)

COC(=O)c1sc(=S)sc1C(=O)OC
IC50 [2]: > 66 µM (inactive)
IC50 [3]: > 66 µM (inactive)

C#CCOc1ccc(/C=C2/C(=O)ON=C2C)cc1OCC
IC50 (Genome polyprotein): > 100 µM (active)

CCCSc1nc(O)c(C(c2ccc(OC)c(O)c2)c2c(O)nc(SCCC)n(C)c2=O)c(=O)n1C
IC50 (Large T antigen): > 100 µM (active)
IC50 (Genome polyprotein): 42.1 µM (active)

CCN(CC)CCCNC(=O)CCC(=O)NNc1nc2ccccc2c2nc(C)nn12
EC50 [4]: 160 µM (active)
EC50 [5]: 0.93 µM (active)
IC50 [6]: > 100 µM (inactive)

COc1ccc([N+](=O)[O-])cc1NC(=O)CC(c1ccccc1)c1ccccc1
IC50 (Fatty acid synthase [7]): 60.1 µM (inactive)
IC50 (Fatty acid synthase [8]): 32.8 µM (inactive)

Cc1ccc(OCCOc2cccc(C=C3C(=O)NC(=O)NC3=O)c2)c(C)c1
IC50 (Genome polyprotein): 35.5 µM (active)

CC1(C)N=C(SCC(=O)Nc2ccccc2)C(c2ccc(Cl)cc2)=N1
IC50 [2]: > 66 µM (inactive)
IC50 [3]: > 66 µM (inactive)

COc1ccc(-c2nnc3n(CCc4ccccc4)c(=O)c4ccccc4n23)c(OC)c1
EC50 [9]: > 112 µM (not active)
EC50 [10]: > 112 µM (not active)
AC50 [1]: 7.83 µM (active)

CCCCCCCCNC(=O)/C(C#N)=C/c1ccccc1[N+](=O)[O-]
AC50 [11]: 1.98 µM (active)
AC50 [1]: 4.28 µM (active)
EC50 (Protein RecA): 3.79 µM (active)
IC50 (Fatty acid synthase [7]): 8.41 µM (active)
IC50 (Fatty acid synthase [8]): 5.82 µM (active)

CC(C)c1ccccc1NC(=O)COC(=O)c1cc([N+](=O)[O-])ccc1N1CCOCC1
IC50 (Fatty acid synthase [7]): 2.95 µM (active)
IC50 (Fatty acid synthase [8]): 2.46 µM (active)

Cc1cccc(-n2cc(CN3CCN(Cc4nccn4C)CC3)c(-c3cccc(F)c3)n2)c1
IC50 [12]: 13.5 µM (active)

CC(=O)n1c2ccccc2c2c1c1ccccc1n2C
IC50 [2]: > 66 µM (inactive)
IC50 [3]: > 66 µM (inactive)

Cc1ccc(N2C(=O)CC(SCC(=O)Nc3ccc(S(N)(=O)=O)cc3)C2=O)cc1 (centres undefined)
IC50 [2]: > 66 µM (inactive)
IC50 [3]: > 66 µM (inactive)

COc1ccc(C(=O)COC(=O)c2cc([N+](=O)[O-])ccc2N2CCOCC2)c(OC)c1
AC50 [1]: 10.2 µM (active)
IC50 (Fatty acid synthase [7]): 1.66 µM (active)
IC50 (Fatty acid synthase [8]): 1.63 µM (active)

CCC(C)N/C=C1/C(=O)NC(=O)N(c2ccccc2)C1=O (centres undefined)
IC50 [2]: > 66 µM (inactive)
IC50 [3]: > 66 µM (inactive)

O=C(NCCN1CCCC1)c1ccc2c(c1)N(Cc1cccc(Cl)c1)C(=O)c1ccccc1S2(=O)=O
AC50 [13]: > 195 µM (inactive)
IC50 [12]: 11.5 µM (active)

COc1ccc2c(c1)OC[C@H]1[C@H]2N2C(=O)c3cc(C)ccc3NC(=O)[C@@]2(C)[C@H]1c1ccccc1
AC50 [1]: 1.86 µM (active)

Cc1noc(C)c1S(=O)(=O)N(C)C[C@@H]1Oc2ccc(NC(=O)Nc3cccc4ccccc34)cc2CC(=O)N([C@H](C)CO)C[C@@H]1C
AC50 [14]: < 0.285 µM (active)
AC50 [15]: < 0.285 µM (active)
AC50 [16]: 2.17 µM (active)

CCc1cnc(N2[C@@H](C#N)[C@H](c3ccc(C#Cc4ccccc4F)cc3)[C@@H]2CO)s1
AC50 [14]: 39.8 µM (active)
AC50 [15]: 5.29 µM (active)
AC50 [16]: 24.4 µM (active)

Cc1cc(-c2ccc(/C=N/n3cnnc3)o2)c(C)c([N+](=O)[O-])c1
IC50 (Fatty acid synthase [7]): 12.5 µM (active)
IC50 (Fatty acid synthase [8]): 9.46 µM (active)

C/C(=N\NC(=O)c1nnn(-c2nonc2N)c1-c1ccc(Cl)c(Cl)c1)c1ccncc1
IC50 (Fatty acid synthase [7]): 28 µM (inactive)
IC50 (Fatty acid synthase [8]): 20.9 µM (inactive)

Cn1nnc2c(C(N)=O)ncn2c1=O [TEMOZOLOMIDE]
IC50 [2]: > 66 µM (inactive)
IC50 [3]: 43.4 µM (inactive)
